Reference: patent US4016254A, “Pharmaceutical formulations” (Beecham Group Limited, priority 1972, dated 1977)

Tests used:
Type in all cases: physicochemical
[1] = Flow properties: angle of repose
[2] = Bulk densities, Examples 1-14
[3] = Potency, Examples 15-56 (determined in conventional manner)
Method: The moisture contents of these powders were determined by the Karl Fischer method. The potency of the product was determined in conventional manner.

Angle of repose of raw material [1]: 64 °
Bulk Density [2]: 0.67
Potency of ampicillin trihydrate raw materials ([3]; raw material of Examples 15-29 and 41-48): 83%
Potency of ampicillin trihydrate raw materials ([3]; raw material of Examples 30-40): 84%
Potency of ampicillin trihydrate raw materials ([3]; raw material of Examples 49-56): 86%
Compound: CC1(C)S[C@@H]2[C@H](NC(=O)[C@H](N)c3ccccc3)C(=O)N2[C@H]1C(=O)O [ampicillin trihydrate raw material, ampicillin trihydrate]
